Source: US20080076746A1, “Method of Treating Fish and Crustaceans With a Tellurium Based Immunomodulator” (priority 2003, published 2008)
Entries after “also recorded” stand apart in the source; their conditions may differ.

Key:
[1] = tested on: IL-10L; assay: Serum IL-10L levels in air-exposure stressed fish after AS101 bath immersion (ELISA); assay type: in vivo
Experimental: For in-vitro studies, AS101 was supplied as PBS solution, pH 7.4, at 4° C. For in-vivo experiments, AS101 powder was dissolved in the appropriate concentration in re-circulating water.
(§1) Fish were subjected to air exposure stress every 60 min for 90 sec during 4 hours (10). The fish were then divided into groups of 3, each separately held in 40 L plastic containers at 28°±2° C.
Fish blood was coagulated during 2 hours at room temperature, then centrifuged for 10 min at 1800×g. IL-10L levels were quantified in the collected sera using ELISA (Human Interleukin-10 ELISA Kit, pierce-endogen) according to manufacturer's instructions.

[2] = tested on: Aeromonas salmonicida; assay: Stressed fish infected with Aeromonas salmonicida and immersed in soluble AS101; assay type: in vivo, goldfish (Carassius auratus); settings: vs stressed infected fish not treated with AS101
Experimental: as §1

[3] = tested on: tilapia PBL (peripheral blood leukocytes); assay: Cell toxicity in AS101-treated cell cultures (Blue staining); assay type: cell-based, Tilapia hybrids (Oreochromis niloticus X O. aureus); settings: all AS101 doses, vs control
Experimental: PBL (peripheral blood leukocytes) were isolated from heparinized blood on a ficoll paque bed (Amersham Bioscience) and cultured as previously reported (9). For AS101 treatments, AS101 was added directly to the cultures at final concentration of 0.025 to 25 μg/ml, preferably 0.05 to 0.5 μg/ml.

[4] = tested on: tilapia IL-10L; assay: AS101 effect on intracellular IL-10L levels of tilapia PBL cell cultures (Western blot); assay type: cell-based, Tilapia hybrids (Oreochromis niloticus X O. aureus); settings: 0.5 μg/ml AS101; dose-dependant; FIG. 1
Experimental: For in-vitro studies, AS101 was supplied as PBS solution, pH 7.4, at 4° C. For in-vivo experiments, AS101 powder was dissolved in the appropriate concentration in re-circulating water. PBL (peripheral blood leukocytes) were isolated from heparinized blood on a ficoll paque bed (Amersham Bioscience) and cultured as previously reported (9). For AS101 treatments, AS101 was added directly to the cultures at final concentration of 0.025 to 25 μg/ml, preferably 0.05 to 0.5 μg/ml. PBL were lysed as previously reported (6). Samples were electrophoresed on 12% SDS-PAGE and blotted with anti-human-IL-10 mAb (Santa Cruz Biotechnology, Inc sc-8438) (1:660 dilution) and HRP-conjugate secondary Ab (Jackson Immuno-Research) (1:6600 dilution).

SMILES: Cl[TeH]1(Cl)(Cl)OCCO1 [AS101, ammonium trichloro [dioxyethylene-O, O′] telurate]
- serum IL-10L level ([1]; 2 hours post-stress, bath immersion in 20-ppm water solution, maximal effect, decrease from 719 in stressed fish, FIG. 3): 209 pg/mL
- serum IL-10L change ([1]; 6 hours after stress induction and bath immersion in different AS101 concentrations, 20 μg/ml most efficient): significant IL-10L decrease
- rate of survival ([2]; FIG. 5): higher survival rates; also recorded: higher rate of survival
- number of wounds per fish ([2]; p=0.073, FIG. 4): significantly lower number of wounds per fish; also recorded: significantly less wounds
- cell death (cell toxicity) [3]: did not show elevated cell death beyond control
- inhibition of intracellular tilapia IL-10L synthesis [4]: complete inhibition
